Measured values published in PubChem BioAssay AID1963875 (Molecular Pharmacology Branch, DTP, NCI, 2024).
Values joined by “and” are separate entries in the source; they are usually repeats but may differ in a detail not shown here. Equal values may be shown once.

System: KRAS-mutant PDC complex spheroid viability
Assay: Anticancer human tumor 186277-243-T-J2-PDC patient-derived colon adenocarcinoma cell line growth inhibition [KRAS2]
Settings: for viability, T/C: stronger effect = lower value; active means viability on the fitted dose curve at most 10% of control; inactive means the rest
From the text: Multicellular complex tumor spheroid response to RAS pathway inhibitors in combination with a targeted agents in patient-derived cell lines with oncogenic KRAS variants from multiple cancer types
A high-throughput screen of multi-cell type tumor spheroids was designed to identify active combinations of targeted small molecules and KRAS pathway inhibitors. Complex spheroids include a stromal component modeled by human endothelial cells (HUVEC) and fibroblasts modeled by human mesenchymal stem cells (MSCs). The concentration ranges selected for each drug and investigational agent were based upon clinically achievable concentrations if the clinical Cmax of the agent was known.
Compounds. The drugs and investigational agents: BI-3406 (NSC825286), BAY-293 (NSC824723), batoprotafib (TNO155; NSC825523), sotorasib (AMG 510; NSC818433), MRTX1257 (NSC819558), elimusertib (BAY 1895344; NSC800525), molibresib (GSK525762; NSC774829), temuterkib (LY3214996; NSC803410), venetoclax (NSC766270), alisertib (NSC759677), olaparib (NSC753686), talazoparib (NSC767125), erdafitinib (NSC781556), ipatasertib (NSC767898), cabozantinib (NSC761068), nintedanib (NSC756659), abemaciclib (NSC768073), docetaxel (NSC628503), trametinib (NSC758246), and sapanisertib (NSC764658) were obtained from the National Cancer Institute (NCI) Developmental Therapeutics Program Chemical Repository. The FDA-approved anticancer drug set is available from the Developmental Therapeutics Program. […] The stock solutions were prepared in dimethyl sulfoxide (DMSO, Sigma-Aldrich, St. Louis, MO, cat. D2650) at 800-fold the tested concentration and stored at -70 degrees C prior to their use. All drugs and investigational agents were tested over a range starting from a high concentration at or near the clinical Cmax and decreasing in half-log increments. If the clinical Cmax for an agent had not been determined, the highest concentration tested was 10 microM.
Cell Culture. All cells were maintained in an incubator at 37 degrees C and 5% CO2 with 95% humidity. The PDC lines were cultured according to standard operating procedures established by the NCI PDMR (https://pdmr.cancer.gov/sops/default.htm). Briefly, all PDCs were thawed and cultured in Matrigel-coated flasks prepared with a working solution of 1X Ham's F-12 nutrient mix, without supplementation (Invitrogen, Waltham, MA, cat. 11765054), 100 U/mL penicillin-streptomycin (Invitrogen, cat. 15140122), and 2.5% Matrigel (Corning Inc., Corning, NY, cat. 354248) for the first three passages. All PDCs were cultured in complete DMEM/F-12 media containing advanced DMEM/F-12 (Invitrogen, cat. 12634028), 4.9% defined fetal bovine serum, heat inactivated (HyClone Laboratories Inc., Logan, UT, cat. SH30070.03HI), 389 ng/mL hydrocortisone (Sigma-Aldrich, cat. H4001), 9.7 ng/mL human EGF recombinant protein (Invitrogen, cat. PHG0313), 23.4 microg/mL adenine (Sigma-Aldrich, cat. A2786), 97.3 U/mL penicillin-streptomycin (Invitrogen, cat. 15140122), 1.9 mM L-glutamine (Invitrogen, cat. 25030081), and 9.7 microM Y-27632 dihydrochloride (Tocris Bioscience, Bristol, United Kingdom, cat. 1254). The PDCs were cultured in complete DMEM/F12 media without 9.7 microM Y-27632 dihydrochloride for at least two passages prior to the screen. The established cell line HOP-62 was cultured in RPMI 1640 medium, HEPES (Invitrogen, cat. 22400105) with 10% defined fetal bovine serum (HyClone Laboratories Inc., cat. SH30070.03) and 2 mM L-glutamine (Invitrogen, cat. 25030081). The pooled donor HUVEC were cultured in endothelial cell growth medium 2 (PromoCell, Heidelberg, Germany, cat. C-22011) and the hMSC were cultured in mesenchymal stem cell growth medium 2 (PromoCell, cat. C-28009). For all experiments, HUVEC and hMSC were used at passages </=5, while the malignant cell lines were used at passages </=15. […]

[1] = curve of first compound, second compound 0.1 µM
[2] = curve of first compound, second compound 0.316 µM
[3] = curve of first compound, second compound 1 µM
[4] = curve of first compound, second compound 3.16 µM
[5] = curve of first compound, second compound 10 µM
[6] = second compound 0.1 µM, first compound 0.0316 µM
[7] = second compound 0.1 µM, first compound 0.1 µM
[8] = second compound 0.1 µM, first compound 0.316 µM
[9] = second compound 0.1 µM, first compound 1 µM
[10] = second compound 0.1 µM, first compound 3.16 µM
[11] = second compound 0.1 µM, first compound 10 µM
[12] = second compound 0.316 µM, first compound 0.0316 µM
[13] = second compound 0.316 µM, first compound 0.1 µM
[14] = second compound 0.316 µM, first compound 0.316 µM
[15] = second compound 0.316 µM, first compound 1 µM
[16] = second compound 0.316 µM, first compound 3.16 µM
[17] = second compound 0.316 µM, first compound 10 µM
[18] = second compound 1 µM, first compound 0.0316 µM
[19] = second compound 1 µM, first compound 0.1 µM
[20] = second compound 1 µM, first compound 0.316 µM
[21] = second compound 1 µM, first compound 1 µM
[22] = second compound 1 µM, first compound 3.16 µM
[23] = second compound 1 µM, first compound 10 µM
[24] = second compound 3.16 µM, first compound 0.0316 µM
[25] = second compound 3.16 µM, first compound 0.1 µM
[26] = second compound 3.16 µM, first compound 0.316 µM
[27] = second compound 3.16 µM, first compound 1 µM
[28] = second compound 3.16 µM, first compound 3.16 µM
[29] = second compound 3.16 µM, first compound 10 µM
[30] = second compound 10 µM, first compound 0.0316 µM
[31] = second compound 10 µM, first compound 0.1 µM
[32] = second compound 10 µM, first compound 0.316 µM
[33] = second compound 10 µM, first compound 1 µM
[34] = second compound 10 µM, first compound 3.16 µM
[35] = second compound 10 µM, first compound 10 µM
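Wherever viability, T/C is given: viability read after seven days of compound exposure; 100% = DMSO vehicle-treated spheroids so lower means less viable.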

CCNC(=O)CC1N=C(c2ccc(Cl)cc2)c2cc(OC)ccc2-n2c(C)nnc21 (stereo unspecified) + CNCc1ccccc1-c1csc(C(C)Nc2nc(C)nc3cc(OC)c(OC)cc23)c1
inactive: viability, T/C [6] 106% | viability, T/C [7] 110% | viability, T/C [8] 123% | viability, T/C [9] 149% | viability, T/C [10] 111% | viability, T/C [11] 70.6% | viability, T/C [12] 106% | viability, T/C [13] 111% | viability, T/C [14] 138% | viability, T/C [15] 127% | viability, T/C [16] 84.9% | viability, T/C [17] 58.1% | viability, T/C [18] 98.9% | viability, T/C [19] 112% | viability, T/C [20] 146% | viability, T/C [21] 106% | viability, T/C [22] 62.3% | viability, T/C [23] 37.6% | viability, T/C [24] 98.6% | viability, T/C [25] 108% | viability, T/C [26] 59.2%
> 10000 nM: IC50 [1] | IC50 [2]
< 31.6 nM: IC50 [5]
active: viability, T/C [27] 1.92% | viability, T/C [28] 0.58% | viability, T/C [29] 0.76% | viability, T/C [30] 0.22% | viability, T/C [31] 0.22% | viability, T/C [32] 0.17% | viability, T/C [33] 0.12% | viability, T/C [34] 0.11% | viability, T/C [35] 0.34%
5550 nM: IC50 [3]
379 nM: IC50 [4]

C=CC(=O)N1CCN(c2nc(OCC3CCCN3C)nc3c2CCN(c2cccc4cccc(C)c24)C3)CC1CC#N (stereo unspecified)
inactive: viability, T/C (compound 0.0316 µM) 98.9% [middle of 16 runs]
1.82 µM [middle of 4 runs]: IC50 (compound alone, run of 07/19/2021)
1.75 µM [middle of 5 runs]: IC50 (compound alone, run of 07/26/2021)

COc1cc2nccc(Oc3ccc(NC(=O)C4(C(=O)Nc5ccc(F)cc5)CC4)cc3)c2cc1OC + CNCc1ccccc1-c1csc(C(C)Nc2nc(C)nc3cc(OC)c(OC)cc23)c1
1850 nM: IC50 [1]
active: viability, T/C [17] 4.47% | viability, T/C [22] 6.86% | viability, T/C [23] 2.01% | viability, T/C [27] 0.18% | viability, T/C [28] 0.06% | viability, T/C [29] 0.12% | viability, T/C [30] 0.16% | viability, T/C [31] 0.15% | viability, T/C [32] 0.13% | viability, T/C [33] 0.13% | viability, T/C [34] 0.13% | viability, T/C [35] 0.21%
1910 nM: IC50 [2]
inactive: viability, T/C [6] 112% | viability, T/C [7] 106% | viability, T/C [8] 115% | viability, T/C [9] 93.3% | viability, T/C [10] 11.4% | viability, T/C [11] 12.4% | viability, T/C [12] 113% | viability, T/C [13] 104% | viability, T/C [14] 113% | viability, T/C [15] 100% | viability, T/C [16] 10.8% | viability, T/C [18] 102% | viability, T/C [19] 112% | viability, T/C [20] 121% | viability, T/C [21] 85.7% | viability, T/C [24] 45.5% | viability, T/C [25] 48% | viability, T/C [26] 26.6%
< 31.6 nM: IC50 [4] | IC50 [5]
1680 nM: IC50 [3]

CCNC(=O)CC1N=C(c2ccc(Cl)cc2)c2cc(OC)ccc2-n2c(C)nnc21 (stereo unspecified)
> 10000 nM and 5780 nM: IC50 (curve of compound)
inactive: viability, T/C (compound 0.0316 µM) 96.3% [middle of 5 runs] | viability, T/C (compound 0.1 µM) 101% (4×) and 92.8%

CC1(C)CCC(CN2CCN(c3ccc(C(=O)NS(=O)(=O)c4ccc(NCC5CCOCC5)c([N+](=O)[O-])c4)c(Oc4cnc5[nH]ccc5c4)c3)CC2)=C(c2ccc(Cl)cc2)C1 + C=CC(=O)N1CCN(c2nc(=O)n(-c3c(C)ccnc3C(C)C)c3nc(-c4c(O)cccc4F)c(F)cc23)C(C)C1
373 nM: IC50 [5]
1890 nM: IC50 [1]
active: viability, T/C [11] 0.45% | viability, T/C [17] 1.48% | viability, T/C [23] 0.49% | viability, T/C [28] 8.01% | viability, T/C [29] 0.76% | viability, T/C [34] 1.91% | viability, T/C [35] 0.62%
1690 nM: IC50 [4]
1950 nM: IC50 [3]
inactive: viability, T/C [6] 107% | viability, T/C [7] 89.6% | viability, T/C [8] 90.8% | viability, T/C [9] 108% | viability, T/C [10] 10.6% | viability, T/C [12] 97.7% | viability, T/C [13] 104% | viability, T/C [14] 102% | viability, T/C [15] 98.5% | viability, T/C [16] 23.3% | viability, T/C [18] 97.8% | viability, T/C [19] 97.9% | viability, T/C [20] 94.1% | viability, T/C [21] 106% | viability, T/C [22] 14.3% | viability, T/C [24] 99.9% | viability, T/C [25] 110% | viability, T/C [26] 96.7% | viability, T/C [27] 85% | viability, T/C [30] 61.1% | viability, T/C [31] 69.4% | viability, T/C [32] 48.6% | viability, T/C [33] 32%
2100 nM: IC50 [2]
